Test results taken from ChEMBL document CHEMBL1201862, “PubChem BioAssay data set” (2004).
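Results reflect a 48-hour exposure of cells in 96-well plates to compound at five concentrations. The concentration for 50% growth inhibition is given as GI50.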 Activity calls are given as the source filed them. No stated cut-off is given here; in the data, active = GI50 up to about 1.1 µM and inactive = higher.

Tests used:
Assay in all cases: growth of human tumour cells (NCI), 48 h
[1] = tested on: SW-620
[2] = tested on: OVCAR-8
[3] = tested on: 786-0
[4] = tested on: DMS-114
[5] = tested on: OVCAR-5
[6] = tested on: HOP-92
[7] = tested on: U-251
[8] = tested on: SR
[9] = tested on: M14
[10] = tested on: TK-10
[11] = tested on: MOLT-4
[12] = tested on: CCRF-CEM
[13] = tested on: COLO 205
[14] = tested on: HOP-62
[15] = tested on: SF-295
[16] = tested on: K562
[17] = tested on: A549
[18] = tested on: OVCAR-3
[19] = tested on: SK-OV-3
[20] = tested on: NCI-H23
[21] = tested on: SNB-19
[22] = tested on: KM12
[23] = tested on: HCC 2998
[24] = tested on: RPMI-8226
[25] = tested on: HL-60
[26] = tested on: LXFL 529
[27] = tested on: EKVX
[28] = tested on: SNB-75
[29] = tested on: Malme-3M
[30] = tested on: KM-20L2
[31] = tested on: OVCAR-4
[32] = tested on: NCI-H460
[33] = tested on: UACC-62
[34] = tested on: LOX IMVI
[35] = tested on: RXF 631
[36] = tested on: HOP-18
[37] = tested on: SK-MEL-5
[38] = tested on: DLD-1
[39] = tested on: M19-MEL
[40] = tested on: SF-268
[41] = tested on: XF498
[42] = tested on: HCT-15
[43] = tested on: NCI-H226
[44] = tested on: UACC-257
[45] = tested on: SN12C
[46] = tested on: A498
[47] = tested on: SF-539
[48] = tested on: CAKI-1
[49] = tested on: SK-MEL-28
[50] = tested on: HCT-116
[51] = tested on: IGROV-1
[52] = tested on: HT-29
[53] = tested on: ACHN
[54] = tested on: NCI-H522
[55] = tested on: RXF 393
[56] = tested on: UO-31
[57] = tested on: DMS-273
[58] = tested on: BT-549
[59] = tested on: SK-MEL-2
[60] = tested on: MCF7
[61] = tested on: MDA-MB-435
[62] = tested on: DU-145
[63] = tested on: Hs-578T
[64] = tested on: SNB-78
[65] = tested on: NCI/ADR-RES
[66] = tested on: MDA-MB-231
[67] = tested on: PC-3
[68] = tested on: MDA-N

Nc1nc(S)nc(C(=O)Nc2ccc(Cl)c(Cl)c2)c1-c1ccc(Cl)cc1
GI50 [1]: > 100 µM (inactive)
GI50 [2]: > 100 µM (inactive)
GI50 [3]: > 100 µM (inactive)
GI50 [4]: > 100 µM (inactive)
GI50 [5]: > 100 µM (inactive)
GI50 [6]: 93.1 µM (inactive)
GI50 [7]: > 100 µM (inactive)
GI50 [8]: 76.6 µM (inactive)
GI50 [9]: 87.1 µM (inactive)
GI50 [10]: > 100 µM (inactive)
GI50 [11]: 14.7 µM (inactive)
GI50 [12]: > 100 µM (inactive)
GI50 [13]: > 100 µM (inactive)
GI50 [14]: > 100 µM (inactive)
GI50 [15]: > 100 µM (inactive)
GI50 [16]: 90.8 µM (inactive)
GI50 [17]: > 100 µM (inactive)
GI50 [18]: > 100 µM (inactive)
GI50 [19]: > 100 µM (inactive)
GI50 [20]: > 100 µM (inactive)
GI50 [21]: > 100 µM (inactive)
GI50 [22]: > 100 µM (inactive)
GI50 [23]: > 100 µM (inactive)
GI50 [24]: 62.7 µM (inactive)
GI50 [25]: > 100 µM (inactive)
GI50 [26]: > 100 µM (inactive)
GI50 [27]: > 100 µM (inactive)
GI50 [28]: > 100 µM (inactive)
GI50 [29]: > 100 µM (inactive)
GI50 [30]: > 100 µM (inactive)
GI50 [31]: > 100 µM (inactive)
GI50 [32]: > 100 µM (inactive)
GI50 [33]: > 100 µM (inactive)
GI50 [34]: > 100 µM (inactive)
GI50 [35]: > 100 µM (inactive)
GI50 [36]: > 100 µM (inactive)
GI50 [37]: > 100 µM (inactive)
GI50 [38]: > 100 µM (inactive)
GI50 [39]: > 100 µM (inactive)
GI50 [40]: > 100 µM (inactive)
GI50 [41]: > 100 µM (inactive)
GI50 [42]: > 100 µM
GI50 [43]: > 100 µM (inactive)
GI50 [44]: > 100 µM (inactive)
GI50 [45]: > 100 µM (inactive)
GI50 [46]: > 100 µM (inactive)
GI50 [47]: > 100 µM (inactive)
GI50 [48]: > 100 µM (inactive)
GI50 [49]: > 100 µM (inactive)
GI50 [50]: 45.4 µM (inactive)
GI50 [51]: > 100 µM (inactive)
GI50 [52]: 71.4 µM (inactive)
GI50 [53]: > 100 µM (inactive)
GI50 [54]: > 100 µM (inactive)
GI50 [55]: > 100 µM (inactive)
GI50 [56]: > 100 µM (inactive)

CN[C@@H]1C[C@H]2O[C@@](C)([C@@H]1OC)n1c3ccccc3c3c4c(c5c6ccccc6n2c5c31)C(=O)N[C@@H]4O
GI50 [1]: 0.0764 µM (active)
GI50 [2]: 0.0668 µM (active)
GI50 [57]: 0.0352 µM (active)
GI50 [3]: 0.0266 µM (active)
GI50 [4]: 0.104 µM (active)
GI50 [5]: 0.015 µM (active)
GI50 [7]: 0.0456 µM (active)
GI50 [8]: 0.0132 µM (active)
GI50 [9]: 0.0255 µM (active)
GI50 [58]: 0.108 µM (active)
GI50 [11]: 0.0259 µM (active)
GI50 [12]: 0.0165 µM (active)
GI50 [13]: 0.0569 µM (active)
GI50 [14]: < 0.0134 µM (active)
GI50 [15]: 0.0241 µM (active)
GI50 [16]: 0.31 µM (active)
GI50 [59]: 0.0145 µM (active)
GI50 [60]: 0.0212 µM (active)
GI50 [17]: 0.0278 µM (active)
GI50 [18]: 0.043 µM (active)
GI50 [19]: 0.0267 µM (active)
GI50 [20]: 0.0338 µM (active)
GI50 [21]: 0.12 µM (active)
GI50 [61]: 0.0845 µM (active)
GI50 [22]: 0.0328 µM (active)
GI50 [23]: 0.149 µM (active)
GI50 [24]: 0.658 µM (active)
GI50 [25]: 0.0877 µM (active)
GI50 [62]: 0.0254 µM (active)
GI50 [26]: 0.119 µM (active)
GI50 [27]: 0.0183 µM (active)
GI50 [28]: < 0.0121 µM (active)
GI50 [29]: 0.0175 µM (active)
GI50 [30]: 0.104 µM (active)
GI50 [31]: 0.0526 µM (active)
GI50 [63]: 0.00454 µM (active)
GI50 [32]: 0.04 µM (active)
GI50 [33]: 0.0282 µM (active)
GI50 [34]: 0.0331 µM (active)
GI50 [64]: 0.0344 µM (active)
GI50 [36]: 0.01 µM (active)
GI50 [38]: 0.149 µM (active)
GI50 [65]: 0.0395 µM (active)
GI50 [39]: 0.135 µM (active)
GI50 [40]: 0.0408 µM (active)
GI50 [41]: 0.0356 µM (active)
GI50 [42]: 0.209 µM
GI50 [43]: 0.0194 µM (active)
GI50 [44]: 0.0603 µM (active)
GI50 [66]: 0.0137 µM (active)
GI50 [45]: 0.0208 µM (active)
GI50 [46]: < 0.0129 µM (active)
GI50 [47]: < 0.0151 µM (active)
GI50 [49]: 0.0551 µM (active)
GI50 [50]: 0.144 µM (active)
GI50 [52]: 0.125 µM (active)
GI50 [67]: 0.00904 µM (active)
GI50 [54]: 0.0484 µM (active)
GI50 [68]: 0.0574 µM (active)
GI50 [55]: < 0.0116 µM (active)
GI50 [56]: < 0.0151 µM (active)

Cc1c(NC(=O)C(C)(C)Br)c(=O)oc2c(C)c3occc(=O)c3cc12
GI50 [1]: > 100 µM (inactive)
GI50 [2]: 55 µM (inactive)
GI50 [57]: 77.3 µM (inactive)
GI50 [3]: 53.7 µM (inactive)
GI50 [4]: 44.1 µM (inactive)
GI50 [7]: 72.9 µM (inactive)
GI50 [8]: 43 µM (inactive)
GI50 [9]: 48.9 µM (inactive)
GI50 [10]: > 100 µM (inactive)
GI50 [11]: 37.1 µM (inactive)
GI50 [12]: 28.2 µM (inactive)
GI50 [13]: > 100 µM (inactive)
GI50 [14]: 29.6 µM (inactive)
GI50 [15]: 22.9 µM (inactive)
GI50 [16]: 64.3 µM (inactive)
GI50 [59]: 59.6 µM (inactive)
GI50 [17]: 68.5 µM (inactive)
GI50 [18]: > 100 µM (inactive)
GI50 [20]: 81.5 µM (inactive)
GI50 [21]: 87.9 µM (inactive)
GI50 [23]: > 100 µM (inactive)
GI50 [24]: 45.3 µM (inactive)
GI50 [25]: > 100 µM (inactive)
GI50 [26]: 42.9 µM (inactive)
GI50 [27]: > 100 µM (inactive)
GI50 [28]: 35.7 µM (inactive)
GI50 [29]: 31.1 µM (inactive)
GI50 [30]: 41.4 µM (inactive)
GI50 [31]: 49.8 µM (inactive)
GI50 [32]: 58.9 µM (inactive)
GI50 [33]: 67.5 µM (inactive)
GI50 [34]: 76.9 µM (inactive)
GI50 [35]: 48.1 µM (inactive)
GI50 [37]: 29.7 µM (inactive)
GI50 [38]: 59 µM (inactive)
GI50 [40]: 64.9 µM (inactive)
GI50 [41]: 27.3 µM (inactive)
GI50 [42]: 96.6 µM
GI50 [43]: 23.3 µM (inactive)
GI50 [44]: > 100 µM (inactive)
GI50 [45]: 52.4 µM (inactive)
GI50 [46]: 18.1 µM (inactive)
GI50 [47]: 43.7 µM (inactive)
GI50 [49]: > 100 µM (inactive)
GI50 [50]: 59.4 µM (inactive)
GI50 [51]: 57 µM (inactive)
GI50 [52]: 90.2 µM (inactive)
GI50 [53]: 45.8 µM (inactive)
GI50 [55]: 55.3 µM (inactive)
GI50 [56]: 21.3 µM (inactive)

COc1cc(-c2cc(-c3cc([N+](=O)[O-])c(/C=N/NC(=O)c4ccncc4)o3)ccc2OC)ccc1C
GI50 [1]: > 100 µM (inactive)
GI50 [3]: > 100 µM (inactive)
GI50 [5]: > 100 µM (inactive)
GI50 [6]: > 100 µM (inactive)
GI50 [9]: > 100 µM (inactive)
GI50 [10]: > 100 µM (inactive)
GI50 [12]: > 10 µM (inactive)
GI50 [13]: > 100 µM (inactive)
GI50 [14]: > 100 µM (inactive)
GI50 [15]: > 100 µM (inactive)
GI50 [16]: > 100 µM (inactive)
GI50 [59]: > 100 µM (inactive)
GI50 [17]: > 100 µM (inactive)
GI50 [18]: > 100 µM (inactive)
GI50 [19]: > 100 µM (inactive)
GI50 [20]: > 100 µM (inactive)
GI50 [21]: > 100 µM (inactive)
GI50 [23]: > 100 µM (inactive)
GI50 [24]: > 100 µM (inactive)
GI50 [25]: > 10 µM (inactive)
GI50 [26]: > 100 µM (inactive)
GI50 [27]: > 100 µM (inactive)
GI50 [28]: > 100 µM (inactive)
GI50 [29]: > 100 µM (inactive)
GI50 [30]: > 100 µM (inactive)
GI50 [31]: > 100 µM (inactive)
GI50 [33]: > 100 µM (inactive)
GI50 [34]: > 100 µM (inactive)
GI50 [35]: > 100 µM (inactive)
GI50 [38]: > 100 µM (inactive)
GI50 [39]: > 100 µM (inactive)
GI50 [40]: > 100 µM (inactive)
GI50 [41]: > 100 µM (inactive)
GI50 [43]: > 100 µM (inactive)
GI50 [44]: > 100 µM (inactive)
GI50 [45]: > 100 µM (inactive)
GI50 [46]: > 100 µM (inactive)
GI50 [47]: > 100 µM (inactive)
GI50 [48]: > 100 µM (inactive)
GI50 [49]: > 100 µM (inactive)
GI50 [51]: > 100 µM (inactive)
GI50 [52]: > 100 µM (inactive)
GI50 [53]: > 100 µM (inactive)
GI50 [54]: > 100 µM (inactive)
GI50 [55]: > 100 µM (inactive)
